Laboratory results: patent US9513294B2, “Megastokes amino-triazolyl-BODIPY compounds and applications to live neuron staining and human serum albumin FA1 drug site probing” (National University of Singapore, priority 2012, dated 2016)

Columns and labels:
[1] = Absorbance and fluorescence emission spectra (SpectraMax M2); format: physicochemical
Method in brief: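 Absorbance and emission maxima measured on a SpectraMax M2 spectrophotometer, which also gave quantum yield data; analysis in GraphPrism.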

[2] = Quantum yield measurements versus Acridine Yellow in EtOH; format: physicochemical; details: excitation 460 nm
Method in brief: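 Fluorescence quantum yield is relative to Acridine Yellow in EtOH (Φ 0.47), with excitation at 460 nm. Integrated emission at 510–700 nm was corrected for absorbance at the excitation wavelength and for solvent refractive index.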

SMILES | λmax Absorp. ([1]; BDCCA library, Table 4) [nm] | λmax Emission ([1]; BDCCA library, Table 4) [nm] | φ (quantum yield) ([2]; BDCCA library, Table 4) [%] | λmax Absorp. ([1]; MK library, Table 5) [nm] | λmax Emission ([1]; MK library, Table 5) [nm] | φ (quantum yield) ([2]; MK library, Table 5) [%] | absorbance λmax ([1]; FIG. 2 normalized spectra) [nm] | emission λmax ([1]; FIG. 2 normalized spectra) [nm]
CCCCCCc1cn(-c2ccc3n2[B-](F)(F)[N+]2=C(N4CCCCC4)C=CC2=C3c2ccc(NC(=O)CCl)cc2)nn1 [BDCCA-47] | 466 | 560 | 1.8 |  |  |  |  | 
CCCc1cn(-c2ccc3n2[B-](F)(F)[N+]2=C(N4CCCCC4)C=CC2=C3c2ccc(NC(=O)CCl)cc2)nn1 [BDCCA-48] | 466 | 569 | 1.4 |  |  |  |  | 
CCCCCCCCCCc1cn(-c2ccc3n2[B-](F)(F)[N+]2=C(N4CCCCC4)C=CC2=C3c2ccc(NC(=O)CCl)cc2)nn1 [BDCCA-49] | 466 | 575 | 1.2 |  |  |  |  | 
CCCCCCCc1cn(-c2ccc3n2[B-](F)(F)[N+]2=C(N4CCCCC4)C=CC2=C3c2ccc(NC(=O)CCl)cc2)nn1 [BDCCA-50] | 466 | 568 | 1.0 |  |  |  |  | 
O=C(CCl)Nc1ccc(C2=C3C=CC(N4CCCCC4)=[N+]3[B-](F)(F)n3c2ccc3-n2cc(C3(O)CCCC3)nn2)cc1 [BDCCA-67] | 468 | 590 | 0.7 |  |  |  |  | 
O=C(CCl)Nc1ccc(C2=C3C=CC(N4CCCCC4)=[N+]3[B-](F)(F)n3c2ccc3-n2cc(CO)nn2)cc1 [BDCCA-70] | 465 | 584 | 0.6 |  |  |  |  | 
CCCC(C)c1cn(-c2ccc3n2[B-](F)(F)[N+]2=C(N4CC(C)OC(C)C4)C=CC2=C3c2ccc(N)cc2)nn1 (centres unmarked) [MK20-3] |  |  |  | 476 | 573 | 0.10 |  | 
CC1CN(C2=[N+]3C(=C(c4ccc(N)cc4)c4ccc(-n5cc(C6CC6)nn5)n4[B-]3(F)F)C=C2)CC(C)O1 (centres unmarked) [MK20-4] |  |  |  | 476 | 564 | 0.50 |  | 
CC1CN(C2=[N+]3C(=C(c4ccc(N)cc4)c4ccc(-n5cc(C6CCCC6)nn5)n4[B-]3(F)F)C=C2)CC(C)O1 (centres unmarked) [MK20-5] |  |  |  | 476 | 580 | 0.57 |  | 
CC1CN(C2=[N+]3C(=C(c4ccc(N)cc4)c4ccc(-n5cc(CC6CCCCC6)nn5)n4[B-]3(F)F)C=C2)CC(C)O1 (centres unmarked) [MK20-8] |  |  |  | 476 | 563 | 0.32 |  | 
CC1CN(C2=[N+]3C(=C(c4ccc(N)cc4)c4ccc(-n5cc(CN(C)Cc6ccccc6)nn5)n4[B-]3(F)F)C=C2)CC(C)O1 (centres unmarked) [MK20-18] |  |  |  | 477 | 582 | 0.23 |  | 
CC1CN(C2=[N+]3C(=C(c4ccc(N)cc4)c4ccc(-n5cc(CCc6ccccc6)nn5)n4[B-]3(F)F)C=C2)CC(C)O1 (centres unmarked) [MK20-19] |  |  |  | 477 | 578 | 0.34 |  | 
CC(C)Cc1cn(-c2ccc3n2[B-](F)(F)[N+]2=C(N4CC(C)OC(C)C4)C=CC2=C3c2ccc(N)cc2)nn1 (centres unmarked) [MK20-43] |  |  |  | 478 | 584 | 0.23 |  | 
CCCc1cn(-c2ccc3n2[B-](F)(F)[N+]2=C(N4CC(C)OC(C)C4)C=CC2=C3c2ccc(N)cc2)nn1 (centres unmarked) [MK20-48] |  |  |  | 476 | 580 | 0.25 |  | 
CCCCCC(O)c1cn(-c2ccc3n2[B-](F)(F)[N+]2=C(N4CC(C)OC(C)C4)C=CC2=C3c2ccc(N)cc2)nn1 (centres unmarked) [MK20-69] |  |  |  | 480 | 586 | 0.16 |  | 
CC1CN(C2=[N+]3C(=C(c4ccc(N)cc4)c4ccc(-n5cc(CO)nn5)n4[B-]3(F)F)C=C2)CC(C)O1 (centres unmarked) [MK20-70] |  |  |  | 479 | 584 | 0.18 |  | 
CCCC(C)c1cn(-c2ccc3n2[B-](F)(F)[N+]2=C(N4CCc5ccccc5C4)C=CC2=C3c2ccc(N)cc2)nn1 (centres unmarked) [MK66-3] |  |  |  | 479 | 579 | 0.16 |  | 
Nc1ccc(C2=C3C=CC(N4CCc5ccccc5C4)=[N+]3[B-](F)(F)n3c2ccc3-n2cc(C3CC3)nn2)cc1 [MK66-4] |  |  |  | 479 | 587 | 0.12 |  | 

SMILES | λmax Absorp. ([1]; BDCCA library, Table 4) [nm] | λmax Emission ([1]; BDCCA library, Table 4) [nm] | φ (quantum yield) ([2]; BDCCA library, Table 4) [%] | λmax Absorp. ([1]; MK library, Table 5) [nm] | λmax Emission ([1]; MK library, Table 5) [nm] | φ (quantum yield) ([2]; MK library, Table 5) [%] | absorbance λmax ([1]; FIG. 2 normalized spectra) [nm] | emission λmax ([1]; FIG. 2 normalized spectra) [nm]
Nc1ccc(C2=C3C=CC(N4CCc5ccccc5C4)=[N+]3[B-](F)(F)n3c2ccc3-n2cc(C3CCCC3)nn2)cc1 [MK66-5] |  |  |  | 481 | 582 | 0.19 |  | 
Nc1ccc(C2=C3C=CC(N4CCc5ccccc5C4)=[N+]3[B-](F)(F)n3c2ccc3-n2cc(CC3CCCCC3)nn2)cc1 [MK66-8] |  |  |  | 480 | 590 | 0.12 |  | 
CN(Cc1ccccc1)Cc1cn(-c2ccc3n2[B-](F)(F)[N+]2=C(N4CCc5ccccc5C4)C=CC2=C3c2ccc(N)cc2)nn1 [MK66-18] |  |  |  | 478 | 587 | 0.14 |  | 
Nc1ccc(C2=C3C=CC(N4CCc5ccccc5C4)=[N+]3[B-](F)(F)n3c2ccc3-n2cc(CCc3ccccc3)nn2)cc1 [MK66-19] |  |  |  | 480 | 585 | 0.13 |  | 
CC(C)Cc1cn(-c2ccc3n2[B-](F)(F)[N+]2=C(N4CCc5ccccc5C4)C=CC2=C3c2ccc(N)cc2)nn1 [MK66-43] |  |  |  | 480 | 582 | 0.14 |  | 
CCCc1cn(-c2ccc3n2[B-](F)(F)[N+]2=C(N4CCc5ccccc5C4)C=CC2=C3c2ccc(N)cc2)nn1 [MK66-48] |  |  |  | 480 | 581 | 0.12 |  | 
CCCCCC(O)c1cn(-c2ccc3n2[B-](F)(F)[N+]2=C(N4CCc5ccccc5C4)C=CC2=C3c2ccc(N)cc2)nn1 (centres unmarked) [MK66-69] |  |  |  | 480 | 583 | 0.14 |  | 
Nc1ccc(C2=C3C=CC(N4CCc5ccccc5C4)=[N+]3[B-](F)(F)n3c2ccc3-n2cc(CO)nn2)cc1 [MK66-70] |  |  |  | 479 | 596 | 0.14 |  | 
CCCC(C)c1cn(-c2ccc3n2[B-](F)(F)[N+]2=C(NCc4ccccc4C)C=CC2=C3c2ccc(N)cc2)nn1 (centres unmarked) [MK101-3] |  |  |  | 475 | 562 | 1.08 |  | 
Cc1ccccc1CNC1=[N+]2C(=C(c3ccc(N)cc3)c3ccc(-n4cc(C5CC5)nn4)n3[B-]2(F)F)C=C1 [MK101-4] |  |  |  | 474 | 566 | 0.70 |  | 
Cc1ccccc1CNC1=[N+]2C(=C(c3ccc(N)cc3)c3ccc(-n4cc(C5CCCC5)nn4)n3[B-]2(F)F)C=C1 [MK101-5] |  |  |  | 475 | 565 | 0.58 |  | 
Cc1ccccc1CNC1=[N+]2C(=C(c3ccc(N)cc3)c3ccc(-n4cc(CC5CCCCC5)nn4)n3[B-]2(F)F)C=C1 [MK101-8] |  |  |  | 475 | 564 | 0.64 | 474 | 563
Cc1ccccc1CNC1=[N+]2C(=C(c3ccc(N)cc3)c3ccc(-n4cc(CN(C)Cc5ccccc5)nn4)n3[B-]2(F)F)C=C1 [MK101-18] |  |  |  | 474 | 563 | 0.179 |  | 
Cc1ccccc1CNC1=[N+]2C(=C(c3ccc(N)cc3)c3ccc(-n4cc(CCc5ccccc5)nn4)n3[B-]2(F)F)C=C1 [MK101-19] |  |  |  | 472 | 560 | 2.03 |  | 
Cc1ccccc1CNC1=[N+]2C(=C(c3ccc(N)cc3)c3ccc(-n4cc(CC(C)C)nn4)n3[B-]2(F)F)C=C1 [MK101-43] |  |  |  | 474 | 562 | 2.36 |  | 
CCCc1cn(-c2ccc3n2[B-](F)(F)[N+]2=C(NCc4ccccc4C)C=CC2=C3c2ccc(N)cc2)nn1 [MK101-48] |  |  |  | 473 | 562 | 2.92 |  | 
CCCCCC(O)c1cn(-c2ccc3n2[B-](F)(F)[N+]2=C(NCc4ccccc4C)C=CC2=C3c2ccc(N)cc2)nn1 (centres unmarked) [MK101-69] |  |  |  | 475 | 563 | 2.40 |  | 
Cc1ccccc1CNC1=[N+]2C(=C(c3ccc(N)cc3)c3ccc(-n4cc(CO)nn4)n3[B-]2(F)F)C=C1 [MK101-70] |  |  |  | 474 | 565 | 1.92 |  | 
